Data as given in patent US20050245399A1, “Pyrazole derivatives as herbicidal compositions containing them” (ISHIHARA SANGYO KAISHA, LTD., priority 2004, published 2005).

Test system: corn (Zea mays L.), ZEAMX
Experiment: Test Example 2 post-emergence (foliage treatment) herbicidal activity, ZEAMX
Assay type: in vivo
Conditions: 63 g a.i./ha
Outline: (§1)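 A small sprayer delivered the diluted WP or EC formulation (500 L/ha water, 0.1% v/v spreader) over emerged seedlings in upland soil pots. Damage relative to untreated plants was graded visually from 0 to 100% three weeks or so later (days 20-23).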

SMILES	growth controlling degree, ZEAMX [%]
COc1c(Cl)cc(F)c(-c2nn(C)c(OC(F)F)c2Cl)c1NC(=O)c1ccc(F)cc1 [Compound 1-263]	60
COc1c(Cl)cc(F)c(-c2nn(C)c(OC(F)F)c2Cl)c1NC(=O)C1CC1 [Compound 1-264]	50

Test system: soybean (Glycine max Merr.): GLXMA
Experiment: Test Example 1 pre-emergence herbicidal activity, GLXMA
Assay type: in vivo
Conditions: Rate 63 g a.i./ha, visually observed 20th to 23rd day after application
Outline: (§2)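 Seeds go into pots of upland field soil; one day on, the diluted formulation (500 L/ha water) is sprayed pre-emergence. Effects are scored visually 20 to 23 days post-application as 0–100% growth control.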

SMILES	Pre-emergence Herbicidal Activity GLXMA (growth controlling degree) [%]
COc1c(Cl)cc(F)c(-c2nn(C)c(OC(F)F)c2Cl)c1NC(=O)c1ccc(F)cc1 [Compound 1-263]	10
COc1c(Cl)cc(F)c(-c2nn(C)c(OC(F)F)c2Cl)c1NC(=O)C1CC1 [Compound 1-264]	0

Test system: prickly sida (Sida spinosa L.): SEDSP
Experiment: Test Example 1 pre-emergence herbicidal activity, SIDSP
Assay type: in vivo
Conditions: Rate 63 g a.i./ha, visually observed 20th to 23rd day after application
Outline: as §2

SMILES	Pre-emergence Herbicidal Activity SIDSP (growth controlling degree) [%]
COc1c(Cl)cc(F)c(-c2nn(C)c(OC(F)F)c2Cl)c1NC(=O)c1ccc(F)cc1 [Compound 1-263]	100
COc1c(Cl)cc(F)c(-c2nn(C)c(OC(F)F)c2Cl)c1NC(=O)C1CC1 [Compound 1-264]	100

Test system: corn (Zea mays L.): ZEAMX
Experiment: Test Example 1 pre-emergence herbicidal activity, ZEAMX
Assay type: in vivo
Conditions: Rate 63 g a.i./ha, visually observed 20th to 23rd day after application
Outline: as §2

SMILES	Pre-emergence Herbicidal Activity ZEAMX (growth controlling degree) [%]
COc1c(Cl)cc(F)c(-c2nn(C)c(OC(F)F)c2Cl)c1NC(=O)c1ccc(F)cc1 [Compound 1-263]	0
COc1c(Cl)cc(F)c(-c2nn(C)c(OC(F)F)c2Cl)c1NC(=O)C1CC1 [Compound 1-264]	0

Test system: green foxtail (Setaria viridis L.), SETVI
Experiment: Test Example 2 post-emergence (foliage treatment) herbicidal activity, SETVI
Assay type: in vivo
Conditions: 63 g a.i./ha
Outline: as §1

SMILES	growth controlling degree, SETVI [%]
COc1c(Cl)cc(F)c(-c2nn(C)c(OC(F)F)c2Cl)c1NC(=O)c1ccc(F)cc1 [Compound 1-263]	100
COc1c(Cl)cc(F)c(-c2nn(C)c(OC(F)F)c2Cl)c1NC(=O)C1CC1 [Compound 1-264]	100

Test system: green foxtail (Setaria viridis L.): SETVI
Experiment: Test Example 1 pre-emergence herbicidal activity, SETVI
Assay type: in vivo
Conditions: Rate 63 g a.i./ha, visually observed 20th to 23rd day after application
Outline: as §2

SMILES	Pre-emergence Herbicidal Activity SETVI (growth controlling degree) [%]
COc1c(Cl)cc(F)c(-c2nn(C)c(OC(F)F)c2Cl)c1NC(=O)c1ccc(F)cc1 [Compound 1-263]	100
COc1c(Cl)cc(F)c(-c2nn(C)c(OC(F)F)c2Cl)c1NC(=O)C1CC1 [Compound 1-264]	60

Test system: redroot pigweed (Amaranthus retroflexus L.): AMARE
Experiment: Test Example 1 pre-emergence herbicidal activity, AMARE
Assay type: in vivo
Conditions: Rate 63 g a.i./ha, visually observed 20th to 23rd day after application
Outline: as §2

SMILES	Pre-emergence Herbicidal Activity AMARE (growth controlling degree) [%]
COc1c(Cl)cc(F)c(-c2nn(C)c(OC(F)F)c2Cl)c1NC(=O)c1ccc(F)cc1 [Compound 1-263]	100
COc1c(Cl)cc(F)c(-c2nn(C)c(OC(F)F)c2Cl)c1NC(=O)C1CC1 [Compound 1-264]	100

Test system: velvetleaf (Abutilon theophrasti), ABUTH
Experiment: Test Example 2 post-emergence (foliage treatment) herbicidal activity, ABUTH
Assay type: in vivo
Conditions: 63 g a.i./ha
Outline: as §1

SMILES	growth controlling degree, ABUTH [%]
COc1c(Cl)cc(F)c(-c2nn(C)c(OC(F)F)c2Cl)c1NC(=O)c1ccc(F)cc1 [Compound 1-263]	100
COc1c(Cl)cc(F)c(-c2nn(C)c(OC(F)F)c2Cl)c1NC(=O)C1CC1 [Compound 1-264]	100

Test system: crabgrass (Digitaria sanguinalis L.): DIGSA
Experiment: Test Example 1 pre-emergence herbicidal activity, DIGSA
Assay type: in vivo
Conditions: Rate 63 g a.i./ha, visually observed 20th to 23rd day after application
Outline: as §2

SMILES	Pre-emergence Herbicidal Activity DIGSP (growth controlling degree) [%]
COc1c(Cl)cc(F)c(-c2nn(C)c(OC(F)F)c2Cl)c1NC(=O)c1ccc(F)cc1 [Compound 1-263]	98
COc1c(Cl)cc(F)c(-c2nn(C)c(OC(F)F)c2Cl)c1NC(=O)C1CC1 [Compound 1-264]	100

Test system: soybean (Glycine max Merr.), GLXMA
Experiment: Test Example 2 post-emergence (foliage treatment) herbicidal activity, GLXMA
Assay type: in vivo
Conditions: 63 g a.i./ha
Outline: as §1

SMILES	growth controlling degree, GLXMA [%]
COc1c(Cl)cc(F)c(-c2nn(C)c(OC(F)F)c2Cl)c1NC(=O)c1ccc(F)cc1 [Compound 1-263]	50
COc1c(Cl)cc(F)c(-c2nn(C)c(OC(F)F)c2Cl)c1NC(=O)C1CC1 [Compound 1-264]	70

Test system: velvetleaf (Abutilon theophrasti): ABUTH
Experiment: Test Example 1 pre-emergence herbicidal activity, ABUTH
Assay type: in vivo
Conditions: Rate 63 g a.i./ha, visually observed 20th to 23rd day after application
Outline: as §2

SMILES	Pre-emergence Herbicidal Activity ABUTH (growth controlling degree) [%]
COc1c(Cl)cc(F)c(-c2nn(C)c(OC(F)F)c2Cl)c1NC(=O)c1ccc(F)cc1 [Compound 1-263]	100
COc1c(Cl)cc(F)c(-c2nn(C)c(OC(F)F)c2Cl)c1NC(=O)C1CC1 [Compound 1-264]	80

Test system: rice (Oryza sativa L.): ORYSA
Experiment: Test Example 1 pre-emergence herbicidal activity, ORYSA
Assay type: in vivo
Conditions: Rate 63 g a.i./ha, visually observed 20th to 23rd day after application
Outline: as §2

SMILES	Pre-emergence Herbicidal Activity ORYSA (growth controlling degree) [%]
COc1c(Cl)cc(F)c(-c2nn(C)c(OC(F)F)c2Cl)c1NC(=O)c1ccc(F)cc1 [Compound 1-263]	40
COc1c(Cl)cc(F)c(-c2nn(C)c(OC(F)F)c2Cl)c1NC(=O)C1CC1 [Compound 1-264]	50

Test system: redroot pigweed (Amaranthus retroflexus L.), AMARE
Experiment: Test Example 2 post-emergence (foliage treatment) herbicidal activity, AMARE
Assay type: in vivo
Conditions: 63 g a.i./ha
Description: Upland field soil was put into a 1/170,000 ha pot, and seeds of various plants were sown. Then, when the plants reached predetermined leaf stages {1. barnyardgrass (Echinochloa crus-galli L.), ECHCG: 1.1-2.1 leaf stage, 2. crabgrass (Digitaria sanguinalis L.), DIGSA: 1.0-2.0 leaf stage, 3. green foxtail (Setaria viridis L.), SETVI: 1.0-2.2 leaf stage, 4. redroot pigweed (Amaranthus retroflexus L.), AMARE: 0.1-1.5 leaf stage, 5. prickly sida (Sida spinosa L.), SIDSP: 0.1-0.6 leaf stage, 6. velvetleaf (Abutilon theophrasti), ABUTH: 0.1-0.6 leaf stage, 7. common cocklebur (Xanthium strumarium L.), XANST: 0.1 leaf stage, 8. rice (Oryza sativa L.), ORYSA; 1.0-2 leaf stage, 9. wheat (Triticum aestivum L.), TRZAX: 2.3-3.5 leaf stage, 10. corn (Zea mays L.), ZEAMXN 2.1-2.6 leaf stage, 11. soybean (Glycine max Merr.), GLXMA: primary leaf stage}, a wettable powder or emulsifiable concentrate having the compound of the present invention formulated in accordance with a usual formulation method, was weighed so that the active ingredient would be a predetermined amount, and diluted with water in an amount of 500 L/ha. To the diluted solution, 0.1% (v/v) of an agricultural spreader was added. The herbicide adjusted was applied by a small size sprayer for foliage treatment. On the 20th to 23rd day after the application of the herbicide, the growth of the respective plants was visually observed, and the herbicidal effects were evaluated by growth controlling degrees (%) ranging from 0 (equivalent to the untreated control) to 100 (complete kill), whereby the results shown in Table 5, were obtained. Compound Nos. in Table 5 correspond to Compound Nos. in Table 1 and 2 given hereinbefore.

SMILES	growth controlling degree, AMARE [%]
COc1c(Cl)cc(F)c(-c2nn(C)c(OC(F)F)c2Cl)c1NC(=O)c1ccc(F)cc1 [Compound 1-263]	100
COc1c(Cl)cc(F)c(-c2nn(C)c(OC(F)F)c2Cl)c1NC(=O)C1CC1 [Compound 1-264]	100

Test system: rice (Oryza sativa L.), ORYSA
Experiment: Test Example 2 post-emergence (foliage treatment) herbicidal activity, ORYSA
Assay type: in vivo
Conditions: 63 g a.i./ha
Outline: (§3)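 Sow in upland soil; grow to leaf stage (barnyardgrass 1.1-2.1, crabgrass 1.0-2.0, pigweed 0.1-1.5, rice 1.0-2); spray foliage at a fixed active ingredient rate in 500 L/ha water with 0.1% (v/v) spreader; rate growth control visually at 20-23 days on a 0-100% scale.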

SMILES	growth controlling degree, ORYSA [%]
COc1c(Cl)cc(F)c(-c2nn(C)c(OC(F)F)c2Cl)c1NC(=O)c1ccc(F)cc1 [Compound 1-263]	70
COc1c(Cl)cc(F)c(-c2nn(C)c(OC(F)F)c2Cl)c1NC(=O)C1CC1 [Compound 1-264]	80

Test system: barnyardgrass (Echinochloa crus-galli L.): ECHCG
Experiment: Test Example 1 pre-emergence herbicidal activity, ECHCG
Assay type: in vivo
Conditions: Rate 63 g a.i./ha, visually observed 20th to 23rd day after application
Outline: as §2

SMILES	Pre-emergence Herbicidal Activity ECHCG (growth controlling degree) [%]
COc1c(Cl)cc(F)c(-c2nn(C)c(OC(F)F)c2Cl)c1NC(=O)c1ccc(F)cc1 [Compound 1-263]	90
COc1c(Cl)cc(F)c(-c2nn(C)c(OC(F)F)c2Cl)c1NC(=O)C1CC1 [Compound 1-264]	100

Test system: crabgrass (Digitaria sanguinalis L.), DIGSA
Experiment: Test Example 2 post-emergence (foliage treatment) herbicidal activity, DIGSA
Assay type: in vivo
Conditions: 63 g a.i./ha
Outline: as §3

SMILES	growth controlling degree, DIGSP [%]
COc1c(Cl)cc(F)c(-c2nn(C)c(OC(F)F)c2Cl)c1NC(=O)c1ccc(F)cc1 [Compound 1-263]	98
COc1c(Cl)cc(F)c(-c2nn(C)c(OC(F)F)c2Cl)c1NC(=O)C1CC1 [Compound 1-264]	100

Test system: wheat (Triticum aestivum L.), TRZAX
Experiment: Test Example 2 post-emergence (foliage treatment) herbicidal activity, TRZAX
Assay type: in vivo
Conditions: 63 g a.i./ha
Outline: as §1

SMILES	growth controlling degree, TRZAX [%]
COc1c(Cl)cc(F)c(-c2nn(C)c(OC(F)F)c2Cl)c1NC(=O)c1ccc(F)cc1 [Compound 1-263]	30
COc1c(Cl)cc(F)c(-c2nn(C)c(OC(F)F)c2Cl)c1NC(=O)C1CC1 [Compound 1-264]	40

Test system: barnyardgrass (Echinochloa crus-galli L.), ECHCG
Experiment: Test Example 2 post-emergence (foliage treatment) herbicidal activity, ECHCG
Assay type: in vivo
Conditions: 63 g a.i./ha
Outline: as §3

SMILES	growth controlling degree, ECHCO [%]
COc1c(Cl)cc(F)c(-c2nn(C)c(OC(F)F)c2Cl)c1NC(=O)c1ccc(F)cc1 [Compound 1-263]	98
COc1c(Cl)cc(F)c(-c2nn(C)c(OC(F)F)c2Cl)c1NC(=O)C1CC1 [Compound 1-264]	80

Test system: wheat (Triticum aestivum L.): TRZAX
Experiment: Test Example 1 pre-emergence herbicidal activity, TRZAX
Assay type: in vivo
Conditions: Rate 63 g a.i./ha, visually observed 20th to 23rd day after application
Outline: as §2

SMILES	Pre-emergence Herbicidal Activity TRZAX (growth controlling degree) [%]
COc1c(Cl)cc(F)c(-c2nn(C)c(OC(F)F)c2Cl)c1NC(=O)c1ccc(F)cc1 [Compound 1-263]	30
COc1c(Cl)cc(F)c(-c2nn(C)c(OC(F)F)c2Cl)c1NC(=O)C1CC1 [Compound 1-264]	20
